# From patent EP0367747A2, “Dideoxy-L-arabinitol derivatives as antiviral compounds” (G.D. Searle & Co., priority 1988, dated 1990)
# Read-outs that look alike come from different tables or passages of the source. Marks after values point to notes of the source that are not given here.
# Key:
# [1] = tested on: Sheep choroid plexus(SCP) cells; experiment: Toxicity of compounds in control wells without virus, graded morphologically 0 to 4; format: cell-based; parameters: key: 0 = no toxicity; 4 = total cell lyses; conditions: 0 to 4 scale
# Protocol: (§1) SCP cells were cultured in 6-well plates to confluence. Wells were washed two times with serum free Minimal Essential Medium (MEM) to remove FBS. 0.2ml of virus was added per well in MEM supplemented with 4mM glutamine and gentamycin. After 1 hour adsorption, the virus was aspirated from each well. The appropriate concentration of each compound in 5 ml of Medium 199 (M-199) supplemented with 2% lamb serum, 4mM glutamine, 0.5% agarose and gentamycin was added to each well. Cultures were incubated at 37°C in a humidified 5% CO₂ incubator for 3-4 weeks. To terminate the test: cultures were fixed in 10% formalin, the agar removed, the monolayers stained with 1% crystal violet and plaques counted. Each compound concentration was run in triplicate. […] 0 is no toxicity observed while 4 is total lysing of the cell monolayer.
# Control wells without virus were completed to determine the toxicity of compounds.
# almond beta-glucosidase [2] = experiment: Beta-glucosidase inhibition assay, pH 4.8 (p-nitrophenol release); format: biochemical; conditions: for β-Glucosidase pH 4.8 % Inhibition: Table 5; for IC50: Table 3, at pH 4.8, read-out: β-glucosidase IC₅₀
# Protocol: Yeast alpha-glucosidase and almond beta-glucosidase activities were measured by a modification of the method of Evans, et al., Phytochemistry 22, 768-770 (1983). The modifications included 1) assay of activities at pH 7.4 in HEPES (N-2-hydroxyethylpiperazine-N′-2-ethanesulfonic acid) buffer, 2) measurement in 96 well microtiter plates and 3) inclusion of 10% DMSO in control and test samples. The release of p-nitrophenol from the substrate p-nitrophenylglycoside was measured spectrophotometrically in the presence and absence of test compound. Each assay included a known inhibitor of the enzyme as a standard. IC₅₀ values were determined for compounds which inhibited the enzymes more than 50% at a 1 millimolar concentration. To 100 µl 50 mM sodium citrate buffer, pH 4.8, in a microtiter plate, add 15 µl test compound in DMSO (DMSO alone in control), 20 µl (.017 units) beta-glucosidase (Sigma) in citrate buffer and pre-incubate at room temperature for 15 minutes. Add 25 µl 2.50 mM p-nitrophenyl-beta-D-glucopyranside in citrate buffer, as substrate. Incubate at room temperature 20 minutes (reaction is linear for at least 30 minutes). Add 50 µl 0.4 M NaOH. Read absortion change at 405 nm in a Biotek EIA Autoreader. Each sample was tested in triplicate. IC₅₀ values were determined from the linear portion of the log concentration vs % inhibition curve obtained from a minimum of 3 points. Castanospermine was used as standard inhibitor.
# almond beta-glucosidase [3] = experiment: Beta-glucosidase inhibition assay, pH 7.4 (p-nitrophenol release); format: biochemical; conditions: for β-Glucosidase pH 7.4 % Inhibition: Table 5; for IC50: Table 3, at pH 7.4, read-out: β-glucosidase IC₅₀
# Protocol: (§2) Yeast alpha-glucosidase and almond beta-glucosidase activities were measured by a modification of the method of Evans, et al., Phytochemistry 22, 768-770 (1983). The modifications included 1) assay of activities at pH 7.4 in HEPES (N-2-hydroxyethylpiperazine-N′-2-ethanesulfonic acid) buffer, 2) measurement in 96 well microtiter plates and 3) inclusion of 10% DMSO in control and test samples. The release of p-nitrophenol from the substrate p-nitrophenylglycoside was measured spectrophotometrically in the presence and absence of test compound. Each assay included a known inhibitor of the enzyme as a standard. IC₅₀ values were determined for compounds which inhibited the enzymes more than 50% at a 1 millimolar concentration. To 100 µl 50 mM HEPES buffer, pH 7.4, in a microtiter plate, add 20 µl test compound in DMSO (DMSO alone in control), 40 µl (0.136 units) beta-glucosidase (Sigma) in HEPES buffer and pre-incubate at room temperature for 15 minutes. […] Absorption change was measured at 15 to 25 minutes (reaction is linear for at least 30 minutes). Each sample was tested in triplicate. IC₅₀ values were determined from the linear portion of the log concentration vs % inhibition curve obtained from a minimum of 3 points. Castanospermine was used as standard inhibitor.
# Yeast alpha-glucosidase = biological target: T1, Yeast alpha-glucosidase (Saccharomyces cerevisiae, UniProt P53341); experiment: Alpha-glucosidase inhibition assay, pH 7.4 (p-nitrophenol release); format: biochemical
# T1 construct: purchased Sigma
# T1 sequence (P53341 whole entry): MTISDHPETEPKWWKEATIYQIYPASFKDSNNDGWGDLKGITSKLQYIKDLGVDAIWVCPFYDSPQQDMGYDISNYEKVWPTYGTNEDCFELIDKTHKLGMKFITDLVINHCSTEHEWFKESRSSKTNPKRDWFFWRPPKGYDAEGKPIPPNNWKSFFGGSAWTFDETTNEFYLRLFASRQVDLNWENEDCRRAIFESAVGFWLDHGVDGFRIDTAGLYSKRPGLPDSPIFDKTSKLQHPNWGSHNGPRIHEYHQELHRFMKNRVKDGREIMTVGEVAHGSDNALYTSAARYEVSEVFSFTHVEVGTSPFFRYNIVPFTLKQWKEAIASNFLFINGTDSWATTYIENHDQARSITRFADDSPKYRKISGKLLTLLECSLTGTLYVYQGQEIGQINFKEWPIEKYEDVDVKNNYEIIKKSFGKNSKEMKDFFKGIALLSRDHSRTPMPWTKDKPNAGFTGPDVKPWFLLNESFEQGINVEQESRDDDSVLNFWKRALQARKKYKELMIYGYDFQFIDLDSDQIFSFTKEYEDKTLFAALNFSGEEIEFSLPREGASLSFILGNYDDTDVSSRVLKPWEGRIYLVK
# Protocol: as §2, with “µl (0.013” for “µl (0.136”, “units) yeast alpha-glucosidase” for “units) beta-glucosidase”, “(reaction was” for “(reaction is”, “points. Deoxynojirimycin” for “points. Castanospermine”
# visna virus = experiment: Inhibition of visna virus in vitro (plaque reduction assay / 96 well plate assay) in SCP cells; format: cell-based; parameters: key to Antiviral Activity: A = active compound; I = inactive; conditions: for Antiviral Activity: Table 4; for inhibition at 1 µM / inhibition at 10 µM / inhibition at 100 µM / inhibition at 1000 µM / EC50: Visna-maedi virus; for inhibition at 1 µM: Concentration 0.001 mM; for inhibition at 10 µM: Concentration 0.01 mM; for inhibition at 100 µM: Concentration 0.1 mM; for inhibition at 1000 µM: Concentration 1.0 mM; for EC50: inhibition of visna virus, read-out: EC₅₀
# Protocol: Various compounds as prepared above were tested for inhibition of visna virus in vitro in a plaque reduction assay as follows:
# Sheep choroid plexus(SCP) cells were obtained from American Type Culture Collection (ATCC) catalogue number CRL 1700 and were routinely passaged in vitro in Dulbecco's Modified Eagles (DME) medium supplemented with 20% fetal bovine serum (FBS). SCP cells were passaged once per week at a 1:2 or 1:3 split ratio. Visna was titrated by plaque assay in six-well plates. Virus pools were stored at -70°C.
# as §1
# The 96 well plate assay was performed similarly to the plaque assay above with modifications. SCP cells were seeded at 1 x 10⁴ cells per well in 0.1 ml DME medium. When confluent, the wells were washed with serum free MEM and 25ul of virus added in M-199 supplemented with 2% lamb serum. After 1 hour, 75uL of medium containing test compound was added to each well containing virus. After 2-3 weeks incubation the cytopathic effect of the virus was determined by staining with a vital stain. Cell viability was measured by determining stain density using a 96 well plate reader.
# [4] = Table 5, values marked *, read-out: α-Glucosidase IC₅₀
# [5] = Table 3, pH 7.4, read-out: α-glucosidase IC₅₀
structure (smiles),measurement,setting,value
"CCc1ccc(CN2C[C@H](OC(C)=O)[C@@H](OC(C)=O)[C@@H]2COC(C)=O)cc1 [Example 10, 1,4-([4-Ethylphenyl]methylimino)-1,4-dideoxy-L-arabinitol, triacetate]",Toxicity,"[1]; Table 4, 0.01 mM Concn.",1
same,Toxicity,"[1]; Table 4, 0.1 mM Concn.",1
same,Toxicity,"[1]; Table 4, 1.0 mM Concn.",4
"CCCC(=O)OC[C@H]1[C@H](OC(=O)CCC)[C@@H](OC(=O)CCC)CN1C(=O)OCc1ccccc1 [Example 22, 1,4-(Benzyloxycarbonylimino)-1,4-dideoxy-L-arabinitol, tributyrate]",β-Glucosidase pH 4.8 % Inhibition,almond beta-glucosidase [2]; at 10 µM (**),11%**
same,Toxicity,"[1]; Table 4, 0.1 mM Concn.",1
same,Toxicity,"[1]; Table 4, 1.0 mM Concn.",2
same,β-Glucosidase pH 7.4 % Inhibition,almond beta-glucosidase [3]; at 10 µM (**),2%**
same,inhibition at 10 µM,"Yeast alpha-glucosidase; Table 5, at 10 µM (**), read-out: α-Glucosidase % Inhibition",30%
"O=C(OCc1ccccc1)N1C[C@H](O)[C@@H](O)[C@@H]1CO [Example 17, 1,4-(Benzyloxycarbonylimino)-1,4-dideoxy-L-arabinitol]",β-Glucosidase pH 4.8 % Inhibition,almond beta-glucosidase [2]; at 1.0 mM,4%
same,β-Glucosidase pH 7.4 % Inhibition,almond beta-glucosidase [3]; at 1.0 mM,4%
same,IC50,Yeast alpha-glucosidase; [4],482 µM
"CCCCCCN1C[C@H](OC(C)=O)[C@@H](OC(C)=O)[C@@H]1COC(C)=O [Example 7, 1,4-(Hexylimino)-1,4-dideoxy-L-arabinitol, triacetate]",Toxicity,"[1]; Table 4, 0.01 mM Concn.",0
same,Toxicity,"[1]; Table 4, 0.1 mM Concn.",2
same,Toxicity,"[1]; Table 4, 1.0 mM Concn.",4
same,Antiviral Activity,visna virus; 0.01 mM Concn.,A
same,Antiviral Activity,visna virus; 0.1 mM Concn.,A
"CC(=O)OC[C@H]1[C@H](OC(C)=O)[C@@H](OC(C)=O)CN1C(=O)c1ccccc1 [Example 27, 1,4-(Benzoylimino)-1,4-dideoxy-L-arabinitol, triacetate]",inhibition at 1000 µM,"Yeast alpha-glucosidase; Table 3, at 1 mM, read-out: α-glucosidase Inhibitory Activity",23%
"CCCCN1C[C@H](O)[C@@H](O)[C@H](O)[C@H]1CO [N-Bu-DNJ, N-butyl derivative of 1,5-dideoxy-1,5-imino-D-glucitol, reference compound]",Toxicity,[1]; Concentration 0.001 mM,0
same,Toxicity,[1]; Concentration 0.01 mM,0
same,Toxicity,[1]; Concentration 0.1 mM,1
same,Toxicity,[1]; Concentration 1.0 mM,2
same,inhibition at 1 µM,visna virus,-74%
same,inhibition at 10 µM,visna virus,13%
same,inhibition at 100 µM,visna virus,100%
same,inhibition at 1000 µM,visna virus,100%
"OC[C@H]1[C@H](O)[C@@H](O)CN1CCCc1ccccc1 [Example 16, 1,4-([3-Propylphenyl]imino)-1,4-dideoxy-L-arabinitol]",IC50,almond beta-glucosidase [2],> 1000 µM
same,β-Glucosidase pH 4.8 % Inhibition,almond beta-glucosidase [2]; at 1.0 mM,34%
same,Toxicity,"[1]; Table 4, 0.01 mM Concn.",0
same,Toxicity,"[1]; Table 4, 0.1 mM Concn.",0
same,Toxicity,"[1]; Table 4, 1.0 mM Concn.",3
same,IC50,almond beta-glucosidase [3],> 1000 µM
same,β-Glucosidase pH 7.4 % Inhibition,almond beta-glucosidase [3]; at 1.0 mM,31%
same,IC50,Yeast alpha-glucosidase; [5],13 µM
"CCc1ccc(CN2C[C@H](O)[C@@H](O)[C@@H]2CO)cc1 [Example 9, 1,4-([4-Ethylphenyl]methylimino)-1,4-dideoxy-L-arabinitol]",EC50,visna virus,100 µM
"CCCCCCN1CC(O)C(O)C1CO [Example 6, 1,4-(Hexylimino)-1,4-dideoxy-L-arabinitol]",EC50,visna virus,125 µM
same,IC50,Yeast alpha-glucosidase; [5],35 µM
"CCCCN1CC(O)C(O)C1CO [Example 4, 1,4-(Butylimino)-1,4-dideoxy-L-arabinitol]",β-Glucosidase pH 4.8 % Inhibition,almond beta-glucosidase [2]; at 1.0 mM,20%
same,Toxicity,"[1]; Table 4, 0.01 mM Concn.",0
same,Toxicity,"[1]; Table 4, 0.1 mM Concn.",0
same,Toxicity,"[1]; Table 4, 1.0 mM Concn.",0
same,β-Glucosidase pH 7.4 % Inhibition,almond beta-glucosidase [3]; at 1.0 mM,26%
same,IC50,Yeast alpha-glucosidase; [4],227 µM
"CC(=O)OCCCCCN1C[C@H](OC(C)=O)[C@@H](OC(C)=O)[C@@H]1COC(C)=O [Example 15, 1,4-([5-Acetyloxypentyl]imino)-1,4-dideoxy-L-arabinitol, triacetate]",EC50,visna virus,100 µM
"OCCN1C[C@H](O)[C@@H](O)[C@@H]1CO [Example 2, 1,4-Dideoxy-1,4-([2-hydroxyethyl]imino)-L-arabinitol]",β-Glucosidase pH 4.8 % Inhibition,almond beta-glucosidase [2]; at 1.0 mM,14%
same,Toxicity,"[1]; Table 4, 0.01 mM Concn.",0
same,Toxicity,"[1]; Table 4, 0.1 mM Concn.",0
same,β-Glucosidase pH 7.4 % Inhibition,almond beta-glucosidase [3]; at 1.0 mM,45%
same,IC50,Yeast alpha-glucosidase; [4],178 µM
"CCCCN1C[C@H](OC(C)=O)[C@@H](OC(C)=O)[C@@H]1COC(C)=O [Example 5, 1,4-(Butylimino)-1,4-dideoxy-L-arabinitol, triacetate]",Toxicity,[1]; Concentration 0.001 mM,0
same,Toxicity,[1]; Concentration 0.01 mM,0
same,Toxicity,[1]; Concentration 0.1 mM,0
same,Toxicity,[1]; Concentration 1.0 mM,0
same,inhibition at 1 µM,visna virus,9%
same,inhibition at 10 µM,visna virus,10%
same,inhibition at 100 µM,visna virus,10%
same,inhibition at 1000 µM,visna virus,83%
"CCC(=O)N1C[C@H](OC(C)=O)[C@@H](OC(C)=O)[C@@H]1COC(C)=O [Example 31, 1,4-(Propionylimino)-1,4-dideoxy-L-arabinitol, triacetate]",Toxicity,"[1]; Table 4, 0.1 mM Concn.",1
same,Toxicity,"[1]; Table 4, 1.0 mM Concn.",3
"CCCC(=O)OC[C@@H]1NC[C@H](OC(=O)CCC)[C@H]1OC(=O)CCC [Example 23, 1,4-Imino-1,4-dideoxy-L-arabinitol, tributyrate]",EC50,visna virus,1 µM
"CC(C)C(=O)OC[C@H]1[C@H](OC(=O)C(C)C)[C@@H](OC(=O)C(C)C)CN1C(=O)OCc1ccccc1 [Example 24, 1,4-(Benzyloxycarbonylimino)-1,4-dideoxy-L-arabinitol, triisobutyrate]",β-Glucosidase pH 4.8 % Inhibition,almond beta-glucosidase [2]; at 1.0 mM,7%
same,β-Glucosidase pH 7.4 % Inhibition,almond beta-glucosidase [3]; at 1.0 mM,1%
same,IC50,Yeast alpha-glucosidase; [4],33 µM
"OC[C@H]1[C@H](O)[C@@H](O)CN1Cc1ccc(Cl)cc1 [Example 8, 1,4-([4-Chlorophenyl]methylimino)-1,4-dideoxy-L-arabinitol]",IC50,almond beta-glucosidase [2],> 1000 µM
same,β-Glucosidase pH 4.8 % Inhibition,almond beta-glucosidase [2]; at 1.0 mM,19%
same,Toxicity,"[1]; Table 4, 0.01 mM Concn.",0
same,Toxicity,"[1]; Table 4, 1.0 mM Concn.",3
same,IC50,almond beta-glucosidase [3],> 1000 µM
same,β-Glucosidase pH 7.4 % Inhibition,almond beta-glucosidase [3]; at 1.0 mM,26%
same,IC50,Yeast alpha-glucosidase; [5],2.2 µM
